Test results: patent US6872702B1, “Inhibitors for urokinase receptor” (Wilex AG, priority 1997, dated 2005)
Marks after values point to notes of the source that are not given here. Positions of bridges follow the written chain, without caps; N, C: chain ends. Residues, ends and D or L forms follow the SMILES beside them. No end group written: not given here.

Assays:
[1] = molecular target: T1, cell surface-associated uPAR (Homo sapiens, UniProt Q03405); experiment: Flow cytometry: inhibition of binding of FITC-conjugated pro-uPA to cell surface-associated uPAR on PMA-stimulated U937 cells
T1 construct: source of cellular native uPAR; endogenous in cells; host or cells: U937 cells stimulated with PMA
T1 sequence (Q03405 23-305): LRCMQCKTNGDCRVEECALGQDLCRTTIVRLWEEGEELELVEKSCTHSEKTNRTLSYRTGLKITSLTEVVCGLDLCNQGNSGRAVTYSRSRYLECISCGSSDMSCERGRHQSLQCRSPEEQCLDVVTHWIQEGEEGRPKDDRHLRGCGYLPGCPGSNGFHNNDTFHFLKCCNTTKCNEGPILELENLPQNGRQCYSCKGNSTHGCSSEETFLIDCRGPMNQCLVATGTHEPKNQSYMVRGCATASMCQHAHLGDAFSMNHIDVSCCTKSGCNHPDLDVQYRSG
Description: The ability of the synthetic peptides to inhibit the uPA/uPAR interaction was determined by means of flow cytometry on a FACScan flow cytometer (Becton-Dickinson, Heidelberg, Germany) using the human promyeloid cell line U937 as a source of cellular native uPAR (Chuchulowski et al., Fibrinolysis 6, Suppl. 4 (1992), 95-102; Magdolen et al., (1996), supra). The U937 cells were stimulated with […] phorbol-12-myristate-13-acetate (PMA) for 48 h. After stimulation with PMA the U937 cells expressed considerable amounts of cell surface-associated uPAR.
The stimulated cells were treated for 1 min at room temperature with 50 mM glycine HCl, 0.1 NaCl, pH 3.6 in order to dissociate endogenous receptor-bound uPA. Subsequently the acidic buffer was neutralized with 0.5 M HEPES-100 mM NaCl, pH 7.5. […] Before the analysis, propidium iodide, a fluorescent dye which specifically binds double-stranded DNA, was added to each sample in order to determine the viability of the analysed U937 cells. […]
For this the purified peptides were analysed by mass spectroscopy, quantified by amino acid analysis and then tested by flow cytometry according to the method described in 1.3 for their ability to inhibit the binding of fluorescent-labelled pro-uPA to the uPA receptor on U937 cells. […]

recombinant human uPAR = molecular target: T2, recombinant human uPAR (Homo sapiens, UniProt Q03405); experiment: Microtitre plate solid phase ATF-ligand binding test; conditions: 0.6 ng ATF together with 15 μg synthetic peptide per ml; FIG. 2
T2 construct: made in house; host or cells: CHO cells
T2 sequence (Q03405 23-299 limits assumed): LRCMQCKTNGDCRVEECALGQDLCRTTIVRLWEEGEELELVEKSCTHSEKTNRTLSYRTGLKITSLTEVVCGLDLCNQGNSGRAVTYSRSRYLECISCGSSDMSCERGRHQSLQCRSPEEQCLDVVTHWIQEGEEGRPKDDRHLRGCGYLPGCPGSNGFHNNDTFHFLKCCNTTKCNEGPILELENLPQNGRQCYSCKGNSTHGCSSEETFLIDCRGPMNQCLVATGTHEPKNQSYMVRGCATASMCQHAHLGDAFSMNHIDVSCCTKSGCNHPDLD
Description: In addition to the flow cytometric analyses, a solid phase ATF-ligand binding test was carried out in order to examine the interactions of synthetic peptides with the uPAR. For this microtitre plates were coated with recombinant human uPAR from CHO cells (Wilhelm et al., FEBS Lett. 337 (1994), 131-134; Magdolen et al., Electrophoresis 16 (1995), 813-816) and the remaining protein-binding sites were saturated with 2% BSA (weight/vol). After incubation with the samples (0.6 ng ATF together with 15 μg synthetic peptide per ml) and several wash steps, the amount of ATF which had bound to the uPAR immobilized on the microtitre plate was determined using a biotinylated monoclonal mouse antibody against the kringle domain of ATF (No. 377, American Diagnostics, Greenwich, Conn., USA) and subsequent addition of avidin-peroxidase conjugate and 3,3′,5,5′-tetramethylbenzidine/[…] as a substrate for the peroxidase. The presence of synthetic peptides which compete with the ATF binding to uPAR reduces the conversion of the chromogenic substrate.
A series of peptides with variable sequence regions from the receptor binding region of uPA were synthesized and were increasingly shortened at the amino terminus starting with uPA10-32. The microtitre plate solid phase binding test described in 1.4 was used to determine the inhibitory capacity of these peptides.

[2] = Stability of binding activity after long storage in aqueous solution or repeated freeze/thaw cycles; format: physicochemical
[3] = system: human breast cancer cells MDA-MB-231; experiment: Primary tumour growth of MDA-MB-231 cells injected into naked mice; format: in vivo, Balbc/3 naked mice; conditions: 10 mg/kg intraperitoneally twice weekly
Description: 6×10^6 human breast cancer cells MDA-MB-231 (Price et al., Cancer Res. 50 (1990), 717-721) in a total volume of 300 μl were injected into the right side of 4-6 week old Balbc/3 naked mice. Before injection the cancer cells were mixed with 200 μg of the cyclic uPA peptides cyclo^19,31uPA19-31 (SEQ ID NO: 3) and Cyclo^21,29[Cys21,29]uPA21-30 (SEQ ID NO: 4) in PBS, pH 7.4. Subsequently the mice were treated twice weekly intraperitoneally with the respective peptide at a dose of 10 mg/kg body weight (injection volume 300 μl). The volume of the primary tumours which occurred in the mice in cm^3 was determined after 1, 2, 3 and 5 weeks by measuring the two largest diameters. The control mice were administered PBS pH 7.4. Each group was composed of 5 mice. The results for the peptide cyclo^19,31uPA19-31 (SEQ ID NO: 3) are shown in Tab. 2.

Compound: CC[C@H](C)[C@H](NC(=O)[C@H](CC(N)=O)NC(=O)[C@H](CO)NC(=O)[C@H](Cc1ccccc1)NC(=O)[C@H](Cc1ccc(O)cc1)NC(=O)[C@H](CCCCN)NC(=O)[C@H](CC(N)=O)NC(=O)[C@H](CO)NC(=O)[C@@H](NC(=O)[C@H](CS)NC(=O)[C@@H](NC(=O)CNC(=O)CN)[C@@H](C)O)C(C)C)C(=O)N[C@@H](Cc1c[nH]cn1)C(=O)N[C@@H](Cc1c[nH]c2ccccc12)C(=O)N[C@@H](CS)C(=O)N[C@@H](CC(N)=O)C(=O)O [uPA16-32] (H-GGTCVSNKYFSNIHWCN-OH; N-terminus assumed)
- fold higher affinity to uPAR compared to uPA12-32 [C19A] and clone 20 peptide [1]: 4- to 5 fold
- molar excess resulting in a 50% inhibition of the binding of uPA ([1]; FITC-conjugated pro-uPA): approximately 3,000 molar excess
- inhibition of the binding of ATF to uPAR / uPAR binding capacity (recombinant human uPAR): effectively inhibit

Compound: CC[C@H](C)[C@H](NC(=O)[C@H](CC(N)=O)NC(=O)[C@H](CO)NC(=O)[C@H](Cc1ccccc1)NC(=O)[C@H](Cc1ccc(O)cc1)NC(=O)[C@H](CCCCN)NC(=O)[C@H](CC(N)=O)NC(=O)[C@H](CO)NC(=O)[C@@H](NC(=O)[C@@H](N)CS)C(C)C)C(=O)N[C@@H](Cc1c[nH]cn1)C(=O)N[C@@H](Cc1c[nH]c2ccccc12)C(=O)N[C@@H](CS)C(=O)O [uPA19-31] (H-CVSNKYFSNIHWC-OH; N-terminus and C-terminus assumed)
- inhibition of the binding of ATF to uPAR / uPAR binding capacity (recombinant human uPAR): higher affinity than the longer peptide uPA16-32

Compound: cyclo^19-31uPA19-31: cyclic peptide uPA19-31 with an intramolecular disulfide bond between the cysteine residues at positions 19 and 31 (CVSNKYFSNIHWC; disulfide 1-13)
- stability of binding activity compared with linear peptide uPA19-31 [2]: significantly more stable
- volume of the primary tumours ([3]; week 1): 0 cm^3
- volume of the primary tumours ([3]; week 2): 0.086 ± 0.047 cm^3
- volume of the primary tumours ([3]; week 3): 0.303 ± 0.129 cm^3
- volume of the primary tumours ([3]; week 5, p = 0.02): 0.62 ± 0.21* cm^3
- inhibition of the binding of ATF to uPAR / uPAR binding capacity (recombinant human uPAR): still able to inhibit the binding of uPA to the uPA receptor

Compound: uPA10-32: linear peptide from the receptor binding region of uPA, amino acids 10-32 (NCDCLNGGTCVSNKYFSNIHWCN)
- inhibition of the binding of ATF to uPAR / uPAR binding capacity (recombinant human uPAR): effectively inhibit

Compound: uPA12-31: linear peptide from the receptor binding region of uPA, amino acids 12-31 as printed (DCLNGGTCVSNKYFSNIHWC)
- inhibition of the binding of ATF to uPAR / uPAR binding capacity (recombinant human uPAR): effectively inhibit

Compound: uPA14-32: linear peptide from the receptor binding region of uPA, amino acids 14-32 (LNGGTCVSNKYFSNIHWCN)
- inhibition of the binding of ATF to uPAR / uPAR binding capacity (recombinant human uPAR): effectively inhibit

Compound: uPA20-34: linear peptide from the receptor binding region of uPA, amino acids 20-34 (VSNKYFSNIHWCNCP)
- inhibition of the binding of ATF to uPAR / uPAR binding capacity (recombinant human uPAR): does not bind at all
